Patent US20140017701A1, “CHIMERIC PDK1 KINASES” (priority 2011, published 2014)

Tests used:
PKCι = biological target: T1, PKCι (Homo sapiens, UniProt P41743); assay: Protein kinase activity assay, PKCι; assay type: biochemical; details: for Effect on PKCι activity: 50 μM; for Activity (%) Atypical PKCs PKCι: Table I b, percentage of catalytic activity compared to DMSO
T1 construct: made in house; host or cells: HEK293
T1 sequence (P41743 10-596 limits assumed): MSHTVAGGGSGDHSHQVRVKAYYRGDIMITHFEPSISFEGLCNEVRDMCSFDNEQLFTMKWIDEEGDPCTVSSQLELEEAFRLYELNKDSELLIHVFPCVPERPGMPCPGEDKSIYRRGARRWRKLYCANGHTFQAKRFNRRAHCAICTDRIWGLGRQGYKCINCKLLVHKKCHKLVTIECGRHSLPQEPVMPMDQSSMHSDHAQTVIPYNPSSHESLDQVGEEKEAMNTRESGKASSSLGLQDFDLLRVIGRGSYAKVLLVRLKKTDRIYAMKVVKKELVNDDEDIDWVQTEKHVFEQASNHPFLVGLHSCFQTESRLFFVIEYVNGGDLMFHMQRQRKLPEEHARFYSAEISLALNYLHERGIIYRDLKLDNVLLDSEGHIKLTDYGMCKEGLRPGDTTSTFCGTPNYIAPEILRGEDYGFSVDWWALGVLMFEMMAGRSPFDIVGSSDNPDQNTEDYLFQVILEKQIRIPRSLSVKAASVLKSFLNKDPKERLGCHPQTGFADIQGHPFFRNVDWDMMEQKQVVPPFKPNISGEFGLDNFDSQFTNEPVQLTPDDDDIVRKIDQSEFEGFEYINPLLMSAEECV
Description: For the expression and purification of protein kinases fused to GST, pEBG-2T derived plasmids were transfected into 8×14.5 cm dishes containing HEK293 cells using the PEI method ([…] and […]/14.5 cm dish). The cells were lysed after 48 h in a buffer containing 50 mM Tris-HCl pH 7.5, 1 mM EGTA, 1 mM EDTA, 1% (w/v) Triton X-100, 1 mM sodium orthovanadate, […], 5 mM sodium pyrophosphate, 0.27 M sucrose, 0.1% β-mercaptoethanol, and 1 tablet of protease inhibitor cocktail per 50 ml of buffer. Lysates were frozen in liquid nitrogen and kept at −80° C. until required. Purification involved incubation of the cleared lysate with glutathione sepharose, followed by 2 washes with 0.5 M NaCl in lysis buffer, 8 washes with a buffer containing 50 mM Tris-HCl, 0.1 mM EGTA and 0.1% β-mercaptoethanol (buffer A), and a last wash with buffer A supplemented with 0.26 M sucrose. Elution was performed with this last buffer containing 20 mM glutathione and the GST-fusion protein was cleared from resin by filtration through a “SigmaPrep” spin column (Sigma). GST-fusion proteins were aliquoted, snap frozen in liquid nitrogen and kept at −80° C. until use. Purity at this stage was above 85% as estimated by SDS-PAGE and staining with Coomassie Brilliant Blue R250. PRK2 was expressed from pEBG-2T-PRK2 (Balendran, A. et al. J Biol Chem 275, 20806-13. (2000)), SGK1 from pEBG-2T-SGK1-ΔN[Ser422Asp], PKBα from pEBG-2T-PKBα[Ser473Asp] (Biondi et al., D. R. Embo J 20, 4380-90. (2001)), PKCl from pEBG-2T-PKCl and PKCζ from pEBG-2T-PKCζ. PDK1 and S6K1 were expressed in Sf9 insect cells using a baculovirus expression system from pFastBac-PDK1 and pFastBac-56K1-T2[Thr412Glu].
The protein kinase activity assays were performed essentially as previously described (Engel, M. et al. Embo J 25, 5469-80 (2006)). The assays were done in a 96-well format and 4 μl aliquots spotted on P81 phospho-cellulose papers (Whatman) using epMotion 5070 (Eppendorf), washed in 0.01% phosphoric acid, dried, and then exposed and analyzed using PhosphoImager technology (FLA-9000 Starion, Fujifilm). Atypical PKC (aPKC) activity assays were performed in a total volume of 20 μl containing 50 mM Tris-HCl pH 7.5, 0.05 mg/ml BSA, 0.1% (v/v) 2-mercaptoethanol, 10 mM MgCl2, 100 μM [γ^32P]ATP (5-50 cpm/pmol), 0.003% Brij, 30-50 ng of aPKC, and MBP (10 μM) or PSRtide (100 μM) as the substrate. After 15 min pre-incubation, the kinase reaction was started by addition of 6 μl of an ATP-Mg mix. When required, lipid activator (LA) phosphatidylserine (100 ng) or PKC lipid activator mix (1×) was included in the pre-incubation. Low basal activity and consistent activation of 1-592 PKCζ and 498 PKCζ by LA was obtained when the pre-incubation time was started by addition of the whole mix on the enzyme. […]

PDK1/PKCζ chimera = biological target: T2, PDK1/PKCζ chimera (Homo sapiens, UniProt O15530, F157L/I118V/I119H/L113V/Q292A/R131K/T128Q/T148C/V124I/Y288G); assay: Activity assay with PDK1/PKCζ chimera; assay type: biochemical; details: PDK1 50-359/PKCζ chimera, PDK1[P-P-ζ]
T2 construct: His (N); made in house; host or cells: insect cells
T2 sequence (O15530 50-359 L113V/I118V/I119H/V124I/T128Q/R131K/T148C/F157L/Y288G/Q292A): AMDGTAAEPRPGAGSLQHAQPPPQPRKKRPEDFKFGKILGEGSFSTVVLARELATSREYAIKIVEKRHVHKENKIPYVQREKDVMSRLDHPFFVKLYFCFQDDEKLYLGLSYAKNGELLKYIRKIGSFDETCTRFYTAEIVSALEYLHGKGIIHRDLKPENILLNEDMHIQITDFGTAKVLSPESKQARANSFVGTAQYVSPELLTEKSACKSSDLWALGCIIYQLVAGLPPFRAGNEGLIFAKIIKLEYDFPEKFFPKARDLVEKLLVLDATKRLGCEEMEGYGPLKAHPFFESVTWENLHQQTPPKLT
Description: The protein kinase activity assays were performed essentially as previously described (Engel, M. et al. Embo J 25, 5469-80 (2006)). The assays were done in a 96-well format and 4 μl aliquots spotted on P81 phospho-cellulose papers (Whatman) using epMotion 5070 (Eppendorf), washed in 0.01% phosphoric acid, dried, and then exposed and analyzed using PhosphoImager technology (FLA-9000 Starion, Fujifilm). Atypical PKC (aPKC) activity assays were performed in a total volume of 20 μl containing 50 mM Tris-HCl pH 7.5, 0.05 mg/ml BSA, 0.1% (v/v) 2-mercaptoethanol, 10 mM MgCl2, 100 μM [γ^32P]ATP (5-50 cpm/pmol), 0.003% Brij, 30-50 ng of aPKC, and MBP (10 μM) or PSRtide (100 μM) as the substrate. After 15 min pre-incubation, the kinase reaction was started by addition of 6 μl of an ATP-Mg mix. When required, lipid activator (LA) phosphatidylserine (100 ng) or PKC lipid activator mix (1×) was included in the pre-incubation. Low basal activity and consistent activation of 1-592 PKCζ and 498 PKCζ by LA was obtained when the pre-incubation time was started by addition of the whole mix on the enzyme.
The substrates were T308tide (200 μM) for PDK1, Kemptide (100 μM) for PKA, and Crosstide (100 μM) for SGK, PKB, S6K, and PRK2. The activity assays for PKCα, β, θ, and δ were performed in the presence of PKC lipid activator mix (1×) using 3 μM of histone H1 as substrate.

Row | Compound | Effect on PKCι activity (PKCι) | Activity (%) Atypical PKCs PKCι (PKCι) [%] | Effect on PDK1/PKCζ chimera activity (PDK1/PKCζ chimera)
1 | Cl.O=C(O)CC(Cc1nc2cc(-c3ccccc3)ccc2[nH]1)c1ccc(Cl)cc1 (centres unmarked) [PS168] | not | 108 | inhibits
2 | Cl.O=C(O)CC(Cc1nc2c(Cl)cc(Cl)cc2[nH]1)c1ccc(Cl)cc1 (centres unmarked) [PS171] | not | 106 | 
